According to paper PMC8776894 (Communications Biology, 2022):

Legend:
[1] = test system: MCAO/R mice, brain homogenate; assay: Biochemical kits, oxidative stress in brain (SOD, MDA, LPO, glutathione); assay type: in vivo, mouse; details: 48 h
Method: […] The brain was collected, weighed, and placed in a homogenizer for homogenization. Using 0.9% normal saline (NS) as a homogenization medium, a 10% tissue homogenate was prepared, centrifuged at 3500 rpm for 10 min, and the supernatant was taken. […] Kits for ATP, glutamic acid, glutathione, lactic acid, LPO, MDA, and SOD were purchased from Nanjingjiancheng Bioengineering Institute, and were measured as previously described for specification.

[2] = test system: primary cortical neurons and primary microglia; assay: Primary neuron and microglia co-culture, OGD/R, ELISA of proinflammatory factors; assay type: cell-based, mouse
Method: Histological analysis. Organs such as heart, liver, kidney, and brain were excised and fixed in 10% formaldehyde for histological analysis. Their organs were collected and fixed with 4% PFA for 12-18 h, followed by dehydrating using an automatic dehydrator (Leica ASP-300S, Germany) and embedding in paraffin. Then, each sample was coronally cut (4 µm) using a rotatory microtome (Leica RM2245, Germany). The […]
Primary culture of neuron and microglia. Primary cortical neurons (1.0 × 10^5 cells per well in poly-L-lysine-coated 24-well plate) were obtained from fetal C57BL/6 mice of embryonic day 16–17.5, as previously reported1. After careful removal of meninges, cortical tissues were digested in dulbecco's modified eagle medium (DMEM, Gibco) containing 0.05% trypsin (Gibco) at 37 °C for 20 min. DMEM containing 10% FBS (Gibco) was then added to terminate the digestion. The mixture was homogenized by pipetting 120 times and was subsequently filtered with a 100-μm cell strainer (Biologix) and centrifuged at 1000 rpm for 5 min. Then, the cells were collected and resuspended by DMEM supplemented with 10% FBS (Gibco) and penicillin-streptomycin (Gibco).
The suspension was seeded into 24-well plates (10^5 cells/ml), and 4 h later, the medium was changed with Neurobasal medium (Gibco) containing 1% […] and 2% B27 supplement. […]

[3] = test system: CD45+F4/80+CD11b+MHCII+ microglia; assay: Flow cytometry of primary microglia from brain; assay type: in vivo, mouse; details: MCAO/R mice, IF
Method: Brain samples were collected in sham or MCAO mice, digested with collagenase IV and DNase, and filtered with sterile cell strainers (Biologix, 70 µm). Single-cell suspensions were prepared after the removal of red blood cells by ammonium-chloride-potassium (ACK) lysis buffer and isolated leukocytes in brains by 30%, 37%, and 70% Percoll (GE Healthcare) density gradient centrifugation, respectively. Cell numbers were counted by a Coulter counter (Thermo Fisher). Cells were washed with buffer (PBS with 0.5% bovine serum albumin and 0.02% sodium azide) three times and subsequently stained with fluorochrome-conjugated monoclonal antibodies: PE Rat anti-Mouse CD45 (553081, BD Biosciences), FITC anti-mouse F4/80 antibody (123108, Biolegend), PerCP-Cyanine5.5 CD11b antibody (45-0112-82, Invitrogen), and APC anti-mouse I-A/I-E antibody (107614, Biolegend). Samples were analyzed using Flow Cytometry (CytoFLEX S). Subsequent analysis was performed with FlowJo software (Tree Star Inc., San Carlos, CA, USA). Total microglia were identified as CD45^+F4/80^+CD11b^+, M1-like microglia were identified as CD45 + F4/80 + CD11b + MHCII + .

[4] = test system: IL-1β, TNF-α, IL-6, IL-8, IL-10 in ischemic cortex; assay: Cytokine ELISA in ischemic cortex; assay type: in vivo, mouse; details: MCAO/R mice, 48 h
Method: Mice were decapitated under anesthesia at 48 h after MCAO/R. The IL-1β (Cat# 88-5019-88), TNF-α (Cat# 88-7324-22), IL-6 (Cat# 88-7064-88), and IL-8 (Cat# 88-8086-22) were purchased from Thermo Fisher Scientific. The levels of these proteins were measured by enzyme-linked immune sorbent assays (ELISA) kits, according to the manufacturer’s recommendations.

HT22 cells (OGD/R) = assay: Annexin V-FITC/propidium iodide apoptosis; assay type: cell-based, mouse; details: Annexin V-FITC/PI flow cytometry

Gly-Arg-Pro-Hyp-Gly-Phe-Ser-Pro-Phe-Arg-Ile-Asp [VK, Vespakinin-M]
glutathione in brain, between groups [1]: no obvious difference | MDA and LPO content in brain cortex vs vehicle ([1]; VK 150 and 300 µg/kg): decreased content of MDA and LPO | SOD activity in brain cortex vs vehicle ([1]; VK 150 and 300 µg/kg): enhanced SOD activity | protection of neurons in co-culture with microglia, proinflammatory cytokines [2]: protects neurons | activation of microglia [3]: suppressed the excessive activation of microglia | IL-10 level in ischemic cortex vs vehicle [4]: increase in IL-10 levels | IL-1β, TNF-α, IL-6 and IL-8 levels in cortex of the ischemic hemisphere vs vehicle ([4]; VK 150 and 300 µg/kg): decreased IL-1β, TNF-α, IL-6, and IL-8 levels | apoptosis of HT22 cells after OGD/R (HT22 cells (OGD/R)): restrained apoptosis
